≈ marks a conversion by molar mass, not a printed value.
Legend:
[1] = cited from earlier work
[2] = Solubility / saturation point of rapamycin in solvents; assay type: physicochemical; conditions: xylene at 20° C.
Procedure: Rapamycin has a molecular weight of 914.17 g/mol and molecular formula: C51H79NO13 (see also FIG. 1). It is insoluble in water, but soluble in ethanol (2 mM), methanol (25 mg/mL), DMSO (25 mg/mL), chloroform, (5 mg/mL), ether, acetone and N,N-dimethylformamide. As commercially supplied, rapamycin exists as one isomer (structurally homogeneous) in the solid form as indicated by X-rays whereas in solution there are two conformational isomers (approx. 4:1) which exist in equilibrium.
As a general matter, the macrolide therapeutic can be dissolved and/or dispersed in a desired amount in a solvent, or mixture of solvents, for forming the macrolide particulates. As a general matter, dependent on the solvent or solvent combination, as well as the macrolide being dissolved, it is understood in the composition that the macrolide can display a maximum solubility at a predetermined temperature, such as about 20° C. At the maximum solubility a solution can be referred to as “saturated.” The amount of macrolide dissolved can be described in conventional terms such as mg/mL, % (wt/vol), or molar. For example, the saturation point of rapamycin in many solvents is in the range of 15 mg/mL to 150 mg/mL. […]

- saturated solution concentration in xylene [2]: about 75 mg/mL
SMILES: CO[C@H]1C[C@@H]2CC[C@@H](C)[C@@](O)(O2)C(=O)C(=O)N2CCCC[C@H]2C(=O)O[C@H]([C@H](C)C[C@@H]2CC[C@@H](O)[C@H](OC)C2)CC(=O)[C@H](C)/C=C(\C)[C@@H](O)[C@@H](OC)C(=O)[C@H](C)C[C@H](C)/C=C/C=C/C=C/1C [Rapamycin, rapamycin]
- solubility in chloroform ([1]; chloroform): 5000 µg/mL (≈ 5.47 mM)
- solubility in ethanol ([1]; ethanol): 2000 µM (≈ 1830 µg/mL)
- solubility in ether, acetone and N,N-dimethylformamide ([1]; ether, acetone, N,N-dimethylformamide): soluble
- solubility in water ([1]; water): insoluble

— patent publication US9770537B2, “Solvent methods for preparing crystalline macrolide particulates, compositions, and articles containing particulates” (SurModics, Inc., priority 2013, dated 2017)
